Laboratory results taken from patent publication US6984639B2, “Heterocyclic ketone and thioester compounds and uses” (GPI NIL Holdings, Inc., priority 1996, dated 2006).
Read-outs that look alike come from different tables or passages of the source.

Assays:
[1] = test system: MPTP lesioning of dopaminergic neurons in mice; assay: MPTP Model of Parkinson's Disease; format: in vivo; conditions: test compound 4 mg/kg s.c.; MPTP 30 mg/kg i.p. for 5 days; CD1 mice; striatum, 18 days following MPTP
Method: MPTP lesioning of dopaminergic neurons in mice was used as an animal model of Parkinson's Disease. Four week old male CD1 white mice were dosed i.p. with 30 mg/kg of MPTP for 5 days. Test compounds (4 mg/kg), or vehicle, were administered s.c. along with the MPTP for 5 days, as well as for an additional 5 days following cessation of MPTP treatment. At 18 days following MPTP treatment, the animals were sacrificed and the striata were dissected and homogenized. Immunostaining was performed on saggital and coronal brain sections using anti-tyrosine hydroxylase […] to quantitate survival and recovery of dopaminergic neurons.
The results of these experiments are presented in TABLE IV under the column “% TH recovery”.

[2] = test system: cultured chick sensory neurons from dorsal root ganglia; assay: Chick Dorsal Root Ganglion Cultures and Neurite Outgrowth; format: cell-based; conditions: for EC50: neurite outgrowth, 48 hours after drug treatment, from dose-response curves, read-out: ED50 (the source's name)
Method: Dorsal root ganglia were dissected from chick embryos of ten day gestation. Whole ganglion explants were cultured on thin layer Matrigel-coated 12 well plates with Liebovitz L15 plus high glucose media supplemented with 2 mM glutamine and 10% fetal calf serum, and also containing 10 μm cytosine β-D arabinofuranoside (Ara C) at 37° C. in an environment containing 5% CO2. Twenty-four hours later, the DRGs were treated with various concentrations of nerve growth factor, immunophilin ligands or combinations of NFG plus drugs. Forty-eight hours after drug treatment, the ganglia were visualized under phase contrast or Hoffman Modulation contrast with a Zeiss Axiovert inverted microscope. Photomicrographs of the explants were made, and neurite outgrowth was quantitated. Neurites longer than the ORG diameter were counted as positive, with total number of neurites quantitated per each experimental condition. Three to four DRGs are cultured per well, and each treatment was performed in duplicate.
Dose-response curves were generated from which ED50 values were obtained.

Row | Compound | % TH recovery [1] [%] | EC50 [2] [pM] | further results
1 | 2,2-Diphenylethyl (2S)-1-(3,3-dimethyl-2-oxopentanoyl)-2-pyrrolidinecarbothioate [Compound 44] | 28 | – | –
2 | 2-Phenyl-1-ethyl 1-(2-phenyl-1,2-dioxoethyl)-2-piperidinecarbothioate [Compound 14] | 48 | 900 | –
3 | 2-Phenyl-1-ethyl 1-(3,3-dimethyl-1,2-dioxopentyl)-2-piperidinecarbothioate [Compound 10] | 54 | 800 | neurite outgrowth in sensory neurons (photomicrograph) ([2]; 10 pM): promoting neurite outgrowth; neurite outgrowth in sensory neurons (photomicrograph) ([2]; 1 nM): promoting neurite outgrowth; neurite outgrowth in sensory neurons (photomicrograph) ([2]; 100 nM): promoting neurite outgrowth
4 | 2-Phenyl-1-ethyl (2S)-1-(2-cyclohexyl-1,2-dioxoethyl)-2-pyrrolidinecarbothioate [Compound 12] | – | 25 | –
5 | 2-Phenyl-1-ethyl (2S)-1-(3,3-dimethyl-1,2-dioxopentyl)-2-pyrrolidinecarbothioate [Compound 9] | 61 | 500 | –
6 | 3,3-Diphenyl-1-propyl (2S)-1-(3,3-dimethyl-1,2-dioxopentyl)-2-pyrrolidinecarbothioate [Compound 32] | 56 | – | –
7 | 3,3-Diphenylpropyl 1-(3,3-dimethyl-2-oxopentanoyl)-2-piperidinecarbothioate [Compound 46] | 62 | – | –
8 | 3-(1-Naphthyl)-1-propyl 1-(3,3-dimethyl-1,2-dioxopentyl)piperidine-2-carbothioate [Compound 40] | 25 | – | –
9 | 3-(1-Naphthyl)-1-propyl (2S)-1-(3,3-dimethyl-2-oxopentanoyl)-2-pyrrolidinecarbothioate [Compound 43] | 50 | – | –
10 | 3-(para-Methoxyphenyl)-1-propyl (2S)-1-(3,3-dimethyl-1,2-dioxopentyl)-2-pyrrolidinecarbothioate [Compound 34] | 37.32 | 11 | –
11 | 3-Phenyl-1-propyl (2S)-1-(2-cyclohexyl-1,2-dioxoethyl)-2-pyrrolidinecarbothioate [Compound 28] | 52 | – | –
12 | 4-Phenyl-1-butyl (2S)-1-(3,3-dimethyl-1,2-dioxopentyl)-2-pyrrolidinecarbothioate [Compound 30] | 48 | 900 | –
13 | CCC(C)(C)C(=O)C(=O)N1CCC[C@H]1C(=O)CCCCc1ccccc1 [Compound 1, (2S)-3,3-dimethyl-1-[2-(5-phenylpentanoyl)pyrrolidinyl]pentane-1,2-dione] | 23 | 400 | neurite outgrowth in sensory neurons (photomicrograph) ([2]; 10 pM): promoting neurite outgrowth; neurite outgrowth in sensory neurons (photomicrograph) ([2]; 1 nM): promoting neurite outgrowth; neurite outgrowth in sensory neurons (photomicrograph) ([2]; 1 μM): promoting neurite outgrowth
14 | CCC(C)(C)C(=O)C(=O)N1CCCC1C(=O)SCc1csc2ccccc12 (stereo not shown) [Compound 11] | 53 | 360 | –
15 | O=C(C(=O)N1CCC[C@H]1C(=O)CCCCc1ccccc1)C1CCCCC1 [Compound 62, (2S)-2-(1-Oxo-5-phenyl)pentyl-1-(2-Cyclohexyl-1,2-dioxoethyl)pyrrolidine] | 38 | – | EC50 ([2]; Gallus gallus, Neuron): 5000 pM
16 | CC(C)(C)C(=O)C(=O)N1CCCCC1C(=O)C(CCc1ccccc1)CCc1ccccc1 (stereo not shown) [Compound 65] | 23 | – | –
17 | CCC(C)(C)C(=O)C(=O)N1CCC[C@H]1C(=O)CCCC(c1ccc(F)cc1)c1ccc(F)cc1 [Compound 66, (2S)-2-[5,5-di(4-Fluorophenyl)pentanoyl]-1-(3,3 dimethyl-1,2-pentanedione)pyrrolidine] | 25 | – | –
